ChEMBL document CHEMBL1201861, “Genomics of Drug Sensitity in Cancer screening data, Wellcome Trust Sanger Institute”

Assays:
Assay in all cases: cells
[1] = test system: C8166; format: functional, cell-based, Homo sapiens; conditions: Homo sapiens, C8166;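 further: growth inhibition of human C8166 cells measured by a cell viability assay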
Description: SANGER: Inhibition of human C8166 cell growth in a cell viability assay.

[2] = test system: HCC2218; format: functional, cell-based, Homo sapiens; conditions: Homo sapiens, HCC2218;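 further: cell viability assay read-out, with IC50 given as the concentration that inhibits growth of the cell line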
Description: SANGER: Inhibition of human HCC2218 cell growth in a cell viability assay.

[3] = test system: COLO-320-HSR; format: functional, cell-based, Homo sapiens; conditions: Homo sapiens, COLO-320-HSR;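 further: growth inhibition of COLO-320-HSR cells, determined with a cell viability assay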
Description: SANGER: Inhibition of human COLO-320-HSR cell growth in a cell viability assay.

[4] = test system: SCH; format: functional, cell-based, Homo sapiens; conditions: Homo sapiens, SCH;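 further: growth inhibition of human SCH cells, read out in a cell viability assay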
Description: SANGER: Inhibition of human SCH cell growth in a cell viability assay.

[5] = test system: SK-MEL-2; format: functional, cell-based, Homo sapiens; conditions: Homo sapiens, SK-MEL-2;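 further: growth inhibition of human SK-MEL-2 cells measured with a cell viability assay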
Description: SANGER: Inhibition of human SK-MEL-2 cell growth in a cell viability assay.

[6] = test system: TE-6; format: functional, cell-based, Homo sapiens; conditions: Homo sapiens, TE-6;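 further: growth inhibition of TE-6 cells, read out with a cell viability assay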
Description: SANGER: Inhibition of human TE-6 cell growth in a cell viability assay.

[7] = test system: TE-1; format: functional, cell-based, Homo sapiens; conditions: Homo sapiens, TE-1;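 further: growth inhibition of the human TE-1 cell line, read out with a cell viability assay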
Description: SANGER: Inhibition of human TE-1 cell growth in a cell viability assay.

[8] = test system: NCI-H1648; format: functional, cell-based, Homo sapiens; conditions: Homo sapiens, NCI-H1648;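 further: cell viability assay measuring inhibition of NCI-H1648 cell growth, from the Sanger screening data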
Description: SANGER: Inhibition of human NCI-H1648 cell growth in a cell viability assay.

[9] = test system: NB69; format: functional, cell-based, Homo sapiens; conditions: Homo sapiens, NB69;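 further: growth inhibition of NB69 cells, determined by a cell viability assay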
Description: SANGER: Inhibition of human NB69 cell growth in a cell viability assay.

[10] = test system: BT-474; format: functional, cell-based, Homo sapiens; conditions: Homo sapiens, BT-474
Description: SANGER: Inhibition of human BT-474 cell growth in a cell viability assay.

[11] = test system: SNU-C2B; format: functional, cell-based; conditions: Homo sapiens;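 further: cell viability readout used to measure compound-driven suppression of SNU-C2B cell proliferation, IC50 marking half-maximal growth inhibition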
Description: SANGER: Inhibition of human SNU-C2B cell growth in a cell viability assay.

[12] = test system: MS-1; format: functional, cell-based, Homo sapiens; conditions: Homo sapiens, MS-1;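 further: growth inhibition of MS-1 cells, read out by cell viability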
Description: SANGER: Inhibition of human MS-1 cell growth in a cell viability assay.

[13] = test system: Calu-6; format: functional, cell-based, Homo sapiens; conditions: Homo sapiens, Calu-6;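 further: growth of human Calu-6 cells, read out by a cell viability assay, IC50 marking inhibition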
Description: SANGER: Inhibition of human Calu-6 cell growth in a cell viability assay.

[14] = test system: LB2241-RCC; format: functional, cell-based, Homo sapiens; conditions: Homo sapiens, LB2241-RCC;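 further: cell viability assay measuring how strongly the cultured human renal carcinoma line is prevented from growing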
Description: SANGER: Inhibition of human LB2241-RCC cell growth in a cell viability assay.

[15] = test system: NCI-H2126; format: functional, cell-based, Homo sapiens; conditions: Homo sapiens, NCI-H2126;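 further: growth inhibition of the cancer cell line, determined with a cell viability readout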
Description: SANGER: Inhibition of human NCI-H2126 cell growth in a cell viability assay.

[16] = test system: LB771-HNC; format: functional, cell-based; conditions: Homo sapiens;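 further: growth inhibition of LB771-HNC human cells, read out with a cell viability assay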
Description: SANGER: Inhibition of human LB771-HNC cell growth in a cell viability assay.

[17] = test system: SNU-5; format: functional, cell-based, Homo sapiens; conditions: Homo sapiens, SNU-5;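 further: cell viability readout used to measure growth inhibition in human NCI-SNU-5 cells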
Description: SANGER: Inhibition of human NCI-SNU-5 cell growth in a cell viability assay.

[18] = test system: MN-60; format: functional, cell-based, Homo sapiens; conditions: Homo sapiens, MN-60;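 further: growth inhibition of the MN-60 cell line, determined with a cell viability assay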
Description: SANGER: Inhibition of human MN-60 cell growth in a cell viability assay.

[19] = test system: SW684; format: functional, cell-based, Homo sapiens; conditions: Homo sapiens, SW684; read-out: IC50;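 further: growth inhibition of human SW684 cells, measured by a cell viability assay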
Description: SANGER: Inhibition of human SW684 cell growth in a cell viability assay.

[20] = test system: NB6; format: functional, cell-based, Homo sapiens; conditions: Homo sapiens, NB6;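 further: growth inhibition of NB6 cells, read out by a cell viability assay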
Description: SANGER: Inhibition of human NB6 cell growth in a cell viability assay.

[21] = test system: KU812 cell line; format: functional, cell-based, Homo sapiens; conditions: Homo sapiens, KU812;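 further: growth inhibition of KU812 cells, read out with a cell viability assay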
Description: SANGER: Inhibition of human KU812 cell growth in a cell viability assay.

[22] = test system: MOLT-16; format: functional, cell-based, Homo sapiens; conditions: Homo sapiens, MOLT-16;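 further: growth inhibition of human MOLT-16 cells, read out with a cell viability assay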
Description: SANGER: Inhibition of human MOLT-16 cell growth in a cell viability assay.

[23] = test system: NKM-1; format: functional, cell-based, Homo sapiens; conditions: Homo sapiens, NKM-1;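 further: growth inhibition of NKM-1 cells, read out with a cell viability assay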
Description: SANGER: Inhibition of human NKM-1 cell growth in a cell viability assay.

[24] = test system: K562; format: functional, cell-based, Homo sapiens; conditions: Homo sapiens, K562
Description: SANGER: Inhibition of human K-562 cell growth in a cell viability assay.

[25] = test system: LS-411N; format: functional, cell-based, Homo sapiens; conditions: Homo sapiens, LS-411N
[26] = test system: MZ2-MEL; format: functional, cell-based, Homo sapiens; conditions: Homo sapiens, MZ2-MEL;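 further: growth inhibition of MZ2-MEL cells read out with a cell viability assay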
Description: SANGER: Inhibition of human MZ2-MEL cell growth in a cell viability assay.

[27] = test system: NCI-H1299; format: functional, cell-based; conditions: Homo sapiens;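 further: growth inhibition of human NCI-H1299 cells, read out by a cell viability assay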
Description: SANGER: Inhibition of human NCI-H1299 cell growth in a cell viability assay.

[28] = test system: COLO-668; format: functional, cell-based, Homo sapiens; conditions: Homo sapiens, COLO-668
Description: SANGER: Inhibition of human COLO-668 cell growth in a cell viability assay.

[29] = test system: ES3; format: functional, cell-based, Homo sapiens; conditions: Homo sapiens, ES3;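 further: growth inhibition of ES3 cells, read out with a cell viability assay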
Description: SANGER: Inhibition of human ES3 cell growth in a cell viability assay.

[30] = test system: ALL-PO; format: functional, cell-based, Homo sapiens; conditions: Homo sapiens, ALL-PO;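 further: growth inhibition of ALL-PO cells, read out by a cell viability assay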
Description: SANGER: Inhibition of human ALL-PO cell growth in a cell viability assay.

[31] = test system: L-428; format: functional, cell-based, Homo sapiens; conditions: Homo sapiens, L-428
Description: SANGER: Inhibition of human L-428 cell growth in a cell viability assay.

[32] = test system: OMC-1; format: functional, cell-based, Homo sapiens; conditions: Homo sapiens, OMC-1;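 further: growth inhibition of the OMC-1 cell line, measured by a cell viability assay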
Description: SANGER: Inhibition of human OMC-1 cell growth in a cell viability assay.

[33] = test system: DB; format: functional, cell-based, Homo sapiens; conditions: Homo sapiens, DB
Description: SANGER: Inhibition of human DB cell growth in a cell viability assay.

[34] = test system: NCI-H1304; format: functional, cell-based, Homo sapiens; conditions: Homo sapiens, NCI-H1304;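 further: growth inhibition of the cancer cell line, measured in a cell viability assay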
Description: SANGER: Inhibition of human NCI-H1304 cell growth in a cell viability assay.

[35] = test system: NCI-H1155; format: functional, cell-based, Homo sapiens; conditions: Homo sapiens, NCI-H1155;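 further: cell growth inhibition measured by a viability assay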
Description: SANGER: Inhibition of human NCI-H1155 cell growth in a cell viability assay.

[36] = test system: COLO-824; format: functional, cell-based, Homo sapiens; conditions: Homo sapiens, COLO-824
Description: SANGER: Inhibition of human COLO-824 cell growth in a cell viability assay.

[37] = test system: RH-1; format: functional, cell-based, Homo sapiens; conditions: Homo sapiens, RH-1;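 further: growth inhibition of human RH-1 cells, read out with a cell viability assay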
Description: SANGER: Inhibition of human RH-1 cell growth in a cell viability assay.

[38] = test system: JVM-3; format: functional, cell-based, Homo sapiens; conditions: Homo sapiens, JVM-3;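 further: growth inhibition of human JVM-3 cells, read out with a cell viability assay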
Description: SANGER: Inhibition of human JVM-3 cell growth in a cell viability assay.

[39] = test system: CTV-1; format: functional, cell-based, Homo sapiens; conditions: Homo sapiens, CTV-1;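 further: growth inhibition of the cell line, read out with a cell viability assay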
Description: SANGER: Inhibition of human CTV-1 cell growth in a cell viability assay.

[40] = test system: TE-11; format: functional, cell-based; conditions: Homo sapiens;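 further: growth inhibition of human TE-11 cells, read out by a cell viability assay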
Description: SANGER: Inhibition of human TE-11 cell growth in a cell viability assay.

[41] = test system: KM-H2; format: functional, cell-based, Homo sapiens; conditions: Homo sapiens, KM-H2;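 further: growth inhibition of KM-H2 cells, read out by a cell viability assay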
Description: SANGER: Inhibition of human KM-H2 cell growth in a cell viability assay.

[42] = test system: EOL1; format: functional, cell-based, Homo sapiens; conditions: Homo sapiens, EOL1;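 further: growth inhibition of EoL-1 cells, read out by a cell viability assay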
Description: SANGER: Inhibition of human EoL-1-cell cell growth in a cell viability assay.

[43] = test system: ES5; format: functional, cell-based, Homo sapiens; conditions: Homo sapiens, ES5;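 further: growth inhibition of human ES5 cells, read out by a cell viability assay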
Description: SANGER: Inhibition of human ES5 cell growth in a cell viability assay.

[44] = test system: COR-L88; format: functional, cell-based, Homo sapiens; conditions: Homo sapiens, COR-L88;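 further: growth inhibition of COR-L88 cells, read out with a cell viability assay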
Description: SANGER: Inhibition of human COR-L88 cell growth in a cell viability assay.

[45] = test system: NOMO-1; format: functional, cell-based, Homo sapiens; conditions: Homo sapiens, NOMO-1;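 further: growth inhibition of human NOMO-1 cells measured by a cell viability assay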
Description: SANGER: Inhibition of human NOMO-1 cell growth in a cell viability assay.

[46] = test system: SW 954; format: functional, cell-based, Homo sapiens; conditions: Homo sapiens, SW 954;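 further: growth inhibition of SW954 human cancer cells, read out as cell viability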
Description: SANGER: Inhibition of human SW954 cell growth in a cell viability assay.

[47] = test system: NB13; format: functional, cell-based, Homo sapiens; conditions: Homo sapiens, NB13;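 further: cell viability readout measuring growth inhibition of human NB13 cells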
Description: SANGER: Inhibition of human NB13 cell growth in a cell viability assay.

[48] = test system: Becker; format: functional, cell-based, Homo sapiens; conditions: Homo sapiens, Becker;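 further: growth inhibition of Becker cells, read out with a cell viability assay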
Description: SANGER: Inhibition of human Becker cell growth in a cell viability assay.

[49] = test system: RS4-11; format: functional, cell-based, Homo sapiens; conditions: Homo sapiens, RS4-11;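 further: growth inhibition of RS4-11 cells, read out by a cell viability assay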
Description: SANGER: Inhibition of human RS4-11 cell growth in a cell viability assay.

[50] = test system: NCI-N87; format: functional, cell-based; conditions: Homo sapiens;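 further: growth inhibition of human NCI-N87 cells, read out with a cell viability assay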
Description: SANGER: Inhibition of human NCI-N87 cell growth in a cell viability assay.

O=C1NC(=O)c2c1c(-c1ccccc1Cl)cc1[nH]c3ccc(O)cc3c21
IC50 [1]: > 2 µM | IC50 [2]: > 2 µM | IC50 [3]: 1.82 µM | IC50 [4]: > 2 µM | IC50 [5]: > 2 µM | IC50 [6]: > 2 µM | IC50 [7]: > 2 µM | IC50 [8]: > 2 µM | IC50 [9]: > 2 µM | IC50 [10]: > 2 µM | IC50 [11]: > 2 µM | IC50 [12]: 0.771 µM | IC50 [13]: > 2 µM | IC50 [14]: 0.394 µM | IC50 [15]: > 2 µM | IC50 [16]: > 2 µM | IC50 [17]: > 2 µM | IC50 [18]: 1.2 µM | IC50 [19]: > 2 µM | IC50 [20]: > 2 µM | IC50 [21]: > 2 µM | IC50 [22]: 1.42 µM | IC50 [23]: > 2 µM | IC50 [24]: > 2 µM | IC50 [25]: > 2 µM | IC50 [26]: > 2 µM | IC50 [27]: > 2 µM | IC50 [28]: > 2 µM | IC50 [29]: > 2 µM | IC50 [30]: > 2 µM | IC50 [31]: > 2 µM | IC50 [32]: > 2 µM | IC50 [33]: 1.3 µM | IC50 [34]: > 2 µM | IC50 [35]: > 2 µM | IC50 [36]: > 2 µM | IC50 [37]: > 2 µM | IC50 [38]: 1.43 µM | IC50 [39]: > 2 µM | IC50 [40]: > 2 µM | IC50 [41]: > 2 µM | IC50 [42]: > 2 µM | IC50 [43]: > 2 µM | IC50 [44]: 1.56 µM | IC50 [45]: > 2 µM | IC50 [46]: 0.213 µM | IC50 [47]: 0.946 µM | IC50 [48]: > 2 µM | IC50 [49]: 0.898 µM | IC50 [50]: > 2 µM

O=S(=O)(O)c1ccc2cc(/N=N/c3cc(S(=O)(=O)O)c4cccnc4c3O)ccc2c1
IC50 [1]: > 16 µM | IC50 [2]: > 16 µM | IC50 [3]: > 16 µM | IC50 [4]: > 16 µM | IC50 [5]: > 16 µM | IC50 [6]: > 16 µM | IC50 [7]: > 16 µM | IC50 [8]: > 16 µM | IC50 [9]: > 16 µM | IC50 [10]: > 16 µM | IC50 [11]: > 16 µM | IC50 [12]: > 16 µM | IC50 [13]: > 16 µM | IC50 [14]: > 16 µM | IC50 [15]: > 16 µM | IC50 [16]: > 16 µM | IC50 [17]: > 16 µM | IC50 [18]: > 16 µM | IC50 [19]: > 16 µM | IC50 [20]: 13.7 µM | IC50 [21]: > 16 µM | IC50 [22]: > 16 µM | IC50 [23]: > 16 µM | IC50 [24]: > 16 µM | IC50 [25]: > 16 µM | IC50 [26]: > 16 µM | IC50 [27]: > 16 µM | IC50 [28]: > 16 µM | IC50 [29]: > 16 µM | IC50 [30]: > 16 µM | IC50 [31]: > 16 µM | IC50 [32]: > 16 µM | IC50 [33]: > 16 µM | IC50 [34]: > 16 µM | IC50 [35]: > 16 µM | IC50 [36]: > 16 µM | IC50 [37]: > 16 µM | IC50 [38]: > 16 µM | IC50 [39]: > 16 µM | IC50 [40]: > 16 µM | IC50 [41]: > 16 µM | IC50 [42]: > 16 µM | IC50 [43]: > 16 µM | IC50 [44]: > 16 µM | IC50 [45]: > 16 µM | IC50 [46]: > 16 µM | IC50 [47]: > 16 µM | IC50 [48]: > 16 µM | IC50 [49]: > 16 µM | IC50 [50]: > 16 µM
